Assay results as given in patent US20050003022A1 (priority 2002, published 2005).

Experiments:
[1] = test system: influenza virus; set-up: species or system small mice; details: in vivo
[2] = test system: influenza; details: in vivo; cited from earlier work
[3] = in vivo; cited from earlier work

| SMILES | small mouse protection ratio (ED50) [1] [mg/kg] | median day for alleviating influenza symptoms [2] [days] | reduction from average influenza case [2] [days] | utilization ratio of oral taken drug [3] [%] |
| --- | --- | --- | --- | --- |
| NC(=O)c1ncn([C@@H]2O[C@H](CO)[C@@H](O)[C@H]2O)n1 [Ribavirin] | 25 |  |  |  |
| CC(=O)N[C@H]1[C@H]([C@H](O)[C@H](O)CO)OC(C(=O)O)=C[C@@H]1N=C(N)N [Zanamivir] |  | 6.5 | 1.3 | 2 |
